# Measured values published in US7449474B2, “Tri-substituted ureas as cytokine inhibitors” (The Procter & Gamble Company, priority 2004, dated 2008).
# Tested on: TNF-α
# Assay: Inhibition of TNF-α in lipopolysaccharide (LPS) stimulated human monocytic THP-1 cells
# Assay type: cell-based
# Conditions: LPS (1 μg/mL) stimulated THP-1 cells, 4 hours incubation, human TNF-α by ELISA
# From the text: In addition, Tumor Necrosis Factor, TNF-α, inhibition can be measured by utilizing lipopolysaccharide (LPS) stimulated human monocytic cells (THP-1) as described in: • i) K. M. Mohler et al., “Protection Against a Lethal Dose of Endotoxin by an Inhibitor of Tumour Necrosis Factor Processing”, Nature, 370, pp 218-220 (1994). • ii) U.S. Pat. No. 6,297,381 B1 Cirillo et al., issued Oct. 2, 2001, incorporated by reference and reproduced herein below in relevant portion thereof.
# The inhibition of cytokine production can be observed by measuring inhibition of TNF-α in lipopolysaccharide stimulated THP-1 cells. All cells and reagents are diluted in RPMI 1640 with phenol red and L-glutamine, supplemented with additional L-glutamine (total: 4 mM), penicillin and streptomycin (50 units/mL each) and fetal bovine serum (FBS 3%) (GIBCO, all conc. Final). Assay is performed under sterile conditions, only test compound preparation is non-sterile. Initial stock solutions are made in DMSO followed by dilution into RPMI 1640 2-fold higher than the desired final assay concentration. Confluent THP-1 cells ([…], final conc.; American Type Culture Company, Rockville, Md.) are added to 96 well polypropylene round bottomed culture plates (Costar 3790; sterile) containing 125 μL test compound (2-fold concentrated) or DMSO vehicle (controls, blanks). DMSO concentration should not exceed 0.2% final. Cell mixture is allowed to preincubate for 15 minutes at 37° C., 5% CO2 prior to stimulation with lipopolysaccharide (LPS, 1 μg/mL final; Sigma L-2630, from E. coli serotype 0111.B4; stored as 1 mg/mL stock in endotoxin screened diluted H2O vehicle at −80° C.). Blanks (unstimulated) receive H2O vehicle; final incubation volume is 250 μL. Incubation (4 hours) proceeds as described above. Assay is to be terminated by centrifuging plates 5 minutes at room temperature, 1600 rpm ([…]); supernatants are then transferred to clean 96 well plates and stored at −80° C. until analyzed for human TNF-α by a commercially available ELISA kit (Biosource #KHC3015, Camarillo, Calif.). The calculated IC50 value is the concentration of the test compound that caused a 50% decrease in the maximal TNF-α production.
row,Structure (SMILES),IC50
1,CCNC(=O)N(c1ccc(F)cc1)c1ccnc(NC(C)C)n1 [1-(4-Fluorophenyl)-1-[2-(iso-propylamino)-pyrimidin-4-yl]-3-ethyl-urea],28 nM
2,"CCNC(=O)N(c1ccc(F)cc1)c1ccnc(N[C@@H](C)C(C)(C)O)n1 [1-(4-Fluorophenyl)-1-{2-[(1S)-2-hydroxy-1,2-dimethyl-propylamino]-pyrimidin-4-yl}-3-ethyl-urea]",30 nM
3,CCNC(=O)N(c1ccc(OCC)cc1)c1ccnc(N[C@@H](C)COC)n1 [1-(4-Ethoxyphenyl)-1-{2-[(1S)-2-methoxy-1-methyl-ethylamino]-pyrimidin-4-yl}-3-ethyl-urea],276 nM
4,CCNC(=O)N(c1ccc(F)cc1)c1ccnc(NC2CCOCC2)n1 [1-(4-Fluorophenyl)-1-[2-(tetrahydro-pyran-4-ylamino)-pyrimidin-4-yl]-3-ethyl-urea],86 nM

# Results, then the compound that gave them:
row,IC50,Structure (SMILES)
1,26 nM,CCNC(=O)N(c1ccc(SC)cc1)c1ccnc(N[C@@H](C)COC)n1 [1-(4-Methylsulfanylphenyl)-1-{2-[(1S)-2-methoxy-1-methyl-ethylamino]-pyrimidin-4-yl}-3-ethyl-urea]
2,16 nM,"CCNC(=O)N(c1ccc(OC)cc1)c1ccnc(N[C@@H](C)C(C)(C)O)n1 [1-(4-Methoxyphenyl)-1-{2-[(1S)-2-hydroxy-1,2-dimethyl-propylamino]-pyrimidin-4-yl}-3-ethyl-urea]"
3,666 nM,CCNC(=O)N(c1ccc(OC)cc1)c1ccnc(N[C@@H](C)COC)n1 [1-(4-Methoxyphenyl)-1-{2-[(1S)-2-methoxy-1-methyl-ethylamino]-pyrimidin-4-yl}-3-ethyl-urea]
4,324 nM,CCCCNC(=O)N(c1ccc(OC)cc1)c1ccnc(N[C@@H](C)COC)n1 [1-(4-Methoxyphenyl)-1-{2-[(1S)-2-methoxy-1-methyl-ethylamino]-pyrimidin-4-yl}-3-butyl-urea]
